Source: patent US7618958B2, “Stereospecific anxiolytic and anticonvulsant agents with reduced muscle-relaxant, sedative-hypnotic and ataxic effects” (WISYS Technology Foundation, Inc., priority 2004, dated 2009)

Assays:
Male BALB/c mice [1] = assay: Light/dark test in mice; type: in vivo, mouse; conditions: ip, FIG. 2 A, *p<0.05 vs. vehicle
Protocol: (§1) Male BALB/c mice approximately 8 to 10 weeks old (18-25 grams) served as subjects in the locomotor activity and light/dark assays. Animals were housed in groups of four on a 14 hour light/10 hour dark cycle and were given free access to food and water. All experiments were conducted during the animals' light cycle (0800-1700).
(§2) Behavioral testing was conducted in an illuminated open field chamber (11.0″×11.0″; Med Associates MED-OFA-510) equipped with infrared beams and sensors which was placed in a sound attenuating cubicle. Horizontal locomotor activity was measured by recording the total number of beams crossed in a 60 minute period. Anxiolytic-like behavior was assessed using the same chambers with the addition of a Plexiglas insert that is opaque to visible light creating separate darkened and illuminated sides (5.5″×11.0″) of the chamber. An opening in the middle of the dark insert allowed the animals to move freely between each side of the chamber. Animals were place in the center of the illuminated side of the chamber and allowed to freely explore for 10 minutes. The amount of time (sec) that the animals spent in each side of the chamber was recorded. Data were analyzed using one-way analysis of variance and Bonferroni t-tests.
Vehicle and doses of SH-053-S—CH3 8 (10.0-100.0 mg/kg) and SH-053-R-CH3 29 (56.0 mg/kg) were tested in the light/dark and locomotor activity assays. […]

α3β3γ2 GABAA receptors = target: T1, α3β3γ2 GABAA receptors (Rattus norvegicus, UniProt P18508+P20236); assay: Two-electrode voltage clamp in Xenopus oocytes, α3β3γ2; type: cell-based; conditions: FIG. 1, Xenopus oocytes
T1 construct: expressed in transfected cells; host or cells: Xenopus laevis oocytes injected with cRNA
Protocol: (§3) 1. Effects of SH-053-S—CH3 8 on GABA(A) receptors were tested by two-electrode voltage clamp experiments in cRNA injected Xenopus oocytes that functionally expressed several subtype combinations of GABAA receptors. […] This oocyte profile is indicative of an anxiolytic agent devoid of sedative, ataxic and anterograde amnestic side effects.
(§4) The methods were based on those published previously. See Li, X., et al., (2003) J. Med. Chem. 46: 5567-5570.
(§5) Cloning of GABAA receptor subunits α1, β3 and γ2 into pCDM8 expression vectors (Invitrogen, CA) has been described elsewhere ([…]). GABAA receptor subunit α4 was cloned in an analogous way. cDNAs for subunits α2, α3 and α5 were gifts from P. Malherbe and were subcloned into pCI-vector (Li, et al., 2003). cDNA for subunit α6 was a gift from P. Seeburg and was subcloned into the vector pGEM-3Z (Promega). After linearizing the cDNA vectors with appropriate restriction endonucleases, capped transcripts were produced using the mMessage mMachine T7 transcription kit (Ambion, Tex.). The capped transcripts were polyadenylated using yeast poly(A) polymerase (USB, OH) and were diluted and stored in diethylpyrocarbonate-treated water at −70° C. (Li, et al., 2003). […]

Male BALB/c mice [2] = assay: Locomotor activity in mice; type: in vivo, mouse; conditions: ip
Protocol: as §1, §2
Vehicle and doses of SH-053-S—CH3 8 (10.0-100.0 mg/kg) and SH-053-R-CH3 29 (56.0 mg/kg) were tested in the light/dark and locomotor activity assays. All drugs were administered intraperitoneally (ip) 30 minutes before each test in volumes of approximately 1 ml/kg. Drugs were dissolved in varying amounts of 95% ethanol (5-10%), propylene glycol and sterile water and diluted to the desired concentration with a solution of 50% propylene glycol and 50% sterile water.

α1β3γ2 GABAA receptors = target: T2, α1β3γ2 GABAA receptors (Rattus norvegicus, UniProt P18508+P62813); assay: Two-electrode voltage clamp in Xenopus oocytes, α1β3γ2; type: cell-based; conditions: FIG. 1, Xenopus oocytes
T2 construct: expressed in transfected cells; host or cells: Xenopus laevis oocytes injected with cRNA
Protocol: as §3, §4, §5

α2β3γ2 GABAA receptors = target: T3, α2β3γ2 GABAA receptors (Rattus norvegicus, UniProt P18508+P23576); assay: Two-electrode voltage clamp in Xenopus oocytes, α2β3γ2; type: cell-based; conditions: FIG. 1, Xenopus oocytes
T3 construct: expressed in transfected cells; host or cells: Xenopus laevis oocytes injected with cRNA
Protocol: as §3, §4, §5

T3 sequence (P23576 29-451): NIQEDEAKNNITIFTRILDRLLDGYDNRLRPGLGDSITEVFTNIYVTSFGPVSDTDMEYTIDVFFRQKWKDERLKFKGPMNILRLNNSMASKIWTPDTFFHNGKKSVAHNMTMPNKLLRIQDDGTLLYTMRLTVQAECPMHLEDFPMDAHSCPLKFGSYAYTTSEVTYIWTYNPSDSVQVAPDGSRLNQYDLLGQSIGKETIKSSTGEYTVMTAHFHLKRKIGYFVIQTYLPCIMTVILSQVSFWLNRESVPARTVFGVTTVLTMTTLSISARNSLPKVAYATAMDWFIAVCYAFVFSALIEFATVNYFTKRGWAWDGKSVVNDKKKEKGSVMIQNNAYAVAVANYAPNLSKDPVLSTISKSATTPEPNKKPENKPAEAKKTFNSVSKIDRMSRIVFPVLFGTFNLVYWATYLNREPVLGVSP
T3 sequence (P63079 26-473 partner): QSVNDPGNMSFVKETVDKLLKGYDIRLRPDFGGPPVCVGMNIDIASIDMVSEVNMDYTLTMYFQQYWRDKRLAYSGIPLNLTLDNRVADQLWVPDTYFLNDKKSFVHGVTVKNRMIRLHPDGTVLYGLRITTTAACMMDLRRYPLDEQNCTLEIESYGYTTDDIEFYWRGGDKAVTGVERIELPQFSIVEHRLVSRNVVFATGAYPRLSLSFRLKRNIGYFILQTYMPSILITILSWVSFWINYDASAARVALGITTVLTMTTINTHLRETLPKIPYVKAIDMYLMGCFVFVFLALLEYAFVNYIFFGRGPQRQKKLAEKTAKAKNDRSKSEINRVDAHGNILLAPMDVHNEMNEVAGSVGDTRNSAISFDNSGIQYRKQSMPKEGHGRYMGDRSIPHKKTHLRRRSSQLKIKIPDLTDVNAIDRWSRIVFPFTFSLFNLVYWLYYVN
T3 sequence (P18508 39-466): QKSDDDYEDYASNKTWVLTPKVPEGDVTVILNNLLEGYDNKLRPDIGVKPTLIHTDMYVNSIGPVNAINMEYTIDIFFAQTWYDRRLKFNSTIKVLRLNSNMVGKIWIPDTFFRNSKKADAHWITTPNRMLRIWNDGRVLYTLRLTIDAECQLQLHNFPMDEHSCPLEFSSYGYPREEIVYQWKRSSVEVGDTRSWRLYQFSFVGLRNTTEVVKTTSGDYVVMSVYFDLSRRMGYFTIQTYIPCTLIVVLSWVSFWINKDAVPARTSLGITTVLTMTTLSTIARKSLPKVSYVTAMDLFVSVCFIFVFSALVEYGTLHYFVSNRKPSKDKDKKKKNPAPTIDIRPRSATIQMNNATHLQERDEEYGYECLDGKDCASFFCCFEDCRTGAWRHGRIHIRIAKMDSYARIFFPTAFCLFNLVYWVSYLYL
T1 sequence (P20236 29-493): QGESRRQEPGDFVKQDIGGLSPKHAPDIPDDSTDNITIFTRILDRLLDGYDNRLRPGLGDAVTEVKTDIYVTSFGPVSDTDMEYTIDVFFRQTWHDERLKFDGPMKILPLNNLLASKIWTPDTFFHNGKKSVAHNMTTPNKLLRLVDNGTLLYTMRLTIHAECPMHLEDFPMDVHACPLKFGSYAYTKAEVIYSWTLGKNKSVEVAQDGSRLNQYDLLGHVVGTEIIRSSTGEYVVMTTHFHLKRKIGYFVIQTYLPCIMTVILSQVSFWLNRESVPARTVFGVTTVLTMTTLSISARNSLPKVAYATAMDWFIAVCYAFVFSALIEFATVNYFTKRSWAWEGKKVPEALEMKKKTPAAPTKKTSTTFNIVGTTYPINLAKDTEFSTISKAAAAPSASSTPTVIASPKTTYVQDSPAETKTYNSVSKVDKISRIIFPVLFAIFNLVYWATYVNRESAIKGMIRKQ
T1 sequence (P63079 26-473 partner): as the sequence (P63079 26-473 partner) above
T1 sequence (P18508 39-466): as the sequence (P18508 39-466) above
T2 sequence (P62813 28-455): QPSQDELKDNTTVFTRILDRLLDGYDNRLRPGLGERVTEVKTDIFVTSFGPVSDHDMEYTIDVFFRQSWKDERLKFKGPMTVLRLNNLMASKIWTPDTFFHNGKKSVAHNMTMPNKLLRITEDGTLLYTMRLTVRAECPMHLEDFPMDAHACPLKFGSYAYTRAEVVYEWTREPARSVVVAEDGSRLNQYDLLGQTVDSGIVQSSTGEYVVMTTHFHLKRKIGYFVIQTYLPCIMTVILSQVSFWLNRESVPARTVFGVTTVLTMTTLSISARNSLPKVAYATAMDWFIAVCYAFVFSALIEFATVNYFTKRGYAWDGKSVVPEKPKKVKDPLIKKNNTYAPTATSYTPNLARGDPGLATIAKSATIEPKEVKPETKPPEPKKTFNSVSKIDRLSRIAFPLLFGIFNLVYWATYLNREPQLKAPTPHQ
T2 sequence (P63079 26-473 partner): as the sequence (P63079 26-473 partner) above
T2 sequence (P18508 39-466): as the sequence (P18508 39-466) above

C#Cc1ccc2c(c1)C(c1ccccc1)=NC(C)c1c(C(=O)OCC)ncn1-2 (stereo not shown) [SH-053-S—CH3, 8-Ethynyl-4-methyl-6-phenyl-4H-2,5,10b-triaza-benzo[e]azulene-3-carboxylic acid ethyl ester]
time spent in the lighted chamber in the light/dark test (Male BALB/c mice [1]): increased time spent in the lighted chamber
efficacy at α3β3γ2 subtypes (α3β3γ2 GABAA receptors): agonist
locomotor activity (Male BALB/c mice [2]; 56 mg/kg): did not suppress locomotor activity
locomotor activity (Male BALB/c mice [2]; 100 mg/kg): did not suppress locomotor activity in any significant fashion
locomotor activity (Male BALB/c mice [2]; FIG. 2 B): No effects on locomotor activity were observed
efficacy at α1β3γ2 subtypes (α1β3γ2 GABAA receptors): almost no efficacy
efficacy at α2β3γ2 subtypes (α2β3γ2 GABAA receptors): agonist
